Patent US20250127700A1, “METHODS OF TREATING HYPERPIGMENTATION DISORDERS” (DermBiont, Inc., priority 2016, published 2025)
Entries after “also recorded” stand apart in the source; their conditions may differ.

Assays:
[1] = test system: C47 BI/6 mice; assay: Lightening of regrowing hair pigmentation in depilated mice, topical application; format: in vivo; conditions: 4% HQ; for Average gray value within the hair shafts, awl hairs / Average gray value within the hair shafts, zig-zag hairs: topical daily for 19 days after depilation, scale 0 (white) to 255 (black); for Average gray value within the hair shafts, awl hairs: 100 μm (0.0057%) Bis or ruboxistaurin in DMSO:propylene glycol, control value 181; for Maximum degree of hair lightening, zig-zag hairs below versus above the median gray value: zig-zag (small) hairs, FIG. 3, 0.0057% ruboxistaurin; for Color of zig-zag hairs compared to vehicle control (micrograph): FIG. 1, 100 μm Bis or ruboxistaurin; for Average gray value within the hair shafts, zig-zag hairs: 100 μm (0.0057%) Bis or ruboxistaurin, control 159
From the text: Briefly, […] mice aged 8-9 weeks (3 per group) were depilated to remove back hairs. These mice have black hair but no melanin pigmentation in the skin. Melanocytes in the hair follicle are responsible for the coat color. […] All compounds and vehicle were applied daily to the depilated areas for 19 days after depilation, i.e. throughout the period during which the new hair shafts are produced following depilation. Representative hairs of each type: guard, awl (large follicles deep in the dermis or subcutaneous follicle), auchene, and zig-zag (smaller follicles set in the more superficial dermis and the most numerous type of coat hairs), were randomly plucked (50/mouse) and photographed under a dissecting microscope. For separate analysis, 20 dark and light hairs from each mouse were subjected to computer assisted analysis of “gray value” for the pixels comprising the hair shaft.
Average gray value within the hair shafts were determined using ImageJ (NIH) software. The gray value is the sum of the gray values of all the pixels in the hair shaft divided by the number of pixels; and values range from 0 (white, no pigment) to 255 (black).
To determine the maximum degree of hair lightening (attributable to maximal drug exposure), an additional comparison was made between zig-zag hairs in each group that fell below versus above the median gray value.

[2] = biological target: PKC isoform γ (Homo sapiens, UniProt P05129); conditions: Jirousek et al. J Med Chem 1996; cited from earlier work
[3] = Solubility statement; format: physicochemical
[4] = biological target: PKC isoform η (Homo sapiens, UniProt P24723); conditions: Jirousek et al. J Med Chem 1996; cited from earlier work
Chain of PKC isoform η (P24723 whole entry, canonical isoform): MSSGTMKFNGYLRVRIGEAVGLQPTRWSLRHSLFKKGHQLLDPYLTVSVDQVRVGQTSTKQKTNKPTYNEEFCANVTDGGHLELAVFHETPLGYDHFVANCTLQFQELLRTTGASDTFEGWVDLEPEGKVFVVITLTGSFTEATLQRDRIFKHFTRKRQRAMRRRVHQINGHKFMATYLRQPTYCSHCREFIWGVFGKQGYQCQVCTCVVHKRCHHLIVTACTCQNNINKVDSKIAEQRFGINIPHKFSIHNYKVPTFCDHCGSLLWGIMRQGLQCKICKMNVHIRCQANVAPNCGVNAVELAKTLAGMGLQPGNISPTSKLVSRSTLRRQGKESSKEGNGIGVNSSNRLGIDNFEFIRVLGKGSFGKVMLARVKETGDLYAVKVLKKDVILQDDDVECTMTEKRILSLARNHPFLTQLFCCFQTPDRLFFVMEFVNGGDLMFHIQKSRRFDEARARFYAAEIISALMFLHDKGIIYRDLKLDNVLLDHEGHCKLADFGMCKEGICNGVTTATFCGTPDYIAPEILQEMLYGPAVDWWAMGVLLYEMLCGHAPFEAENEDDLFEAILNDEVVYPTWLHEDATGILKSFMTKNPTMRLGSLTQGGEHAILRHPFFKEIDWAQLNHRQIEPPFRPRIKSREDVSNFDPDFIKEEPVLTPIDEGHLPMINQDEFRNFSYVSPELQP

Structure (SMILES) | Average gray value within the hair shafts, awl hairs [1] | Maximum degree of hair lightening, zig-zag hairs below versus above the median gray value [1] | Color of zig-zag hairs compared to vehicle control (micrograph) [1] | Average gray value within the hair shafts, zig-zag hairs [1] | IC50 [2] [nM] | Solubility [3] | IC50 [4] [nM]
Oc1ccc(O)cc1 [HQ, hydroquinone] | 168 | minimally lighter than control hairs | minimal color difference | 156 |  |  | 
CN(C)CC1CCn2cc(c3ccccc32)C2=C(C(=O)NC2=O)c2cn(c3ccccc23)CCO1 (centres unmarked) [ruboxistaurin, 9-[(dimethylamino)methyl]-6,7,10,11-tetrahydro-9H,18H-5,21:12,17-di(metheno)dibenzo[e,k]pyrrolo[3,4-h][1,2,13]oxadiazacyclohexadecine-18,20-dione] | 155 | lighter than both control and 4% HQ hairs | significantly lighter; also recorded: lightest | 134 | 300 | poorly soluble | 52
